Tests used:
Experiment in all cases: NCI-60 one-dose SRB screening
Format in all cases: cell-based
A498 = conditions: Homo sapiens, A498, Renal Cancer, 10 µM one dose, 48 h, read-out: growth percentage
BT-549 = conditions: Homo sapiens, BT-549, Breast Cancer, 10 µM one dose, 48 h, read-out: growth percentage
EKVX = conditions: Homo sapiens, Non-Small Cell Lung Cancer, 10 µM one dose, 48 h, read-out: growth percentage
HCC-2998 = conditions: Homo sapiens, HCC-2998, Colon Cancer, 10 µM one dose, 48 h, read-out: growth percentage
HCT-15 = conditions: Homo sapiens, HCT-15, Colon Cancer, 10 µM one dose, 48 h, read-out: growth percentage
HOP-62 = conditions: Homo sapiens, HOP-62, Non-Small Cell Lung Cancer, 10 µM one dose, 48 h, read-out: growth percentage
HT29 = conditions: Homo sapiens, HT-29, HT29, Colon Cancer, 10 µM one dose, 48 h, read-out: growth percentage
MALME-3M = conditions: Homo sapiens, Melanoma, 10 µM one dose, 48 h, read-out: growth percentage
MDA-MB-468 = conditions: Homo sapiens, MDA-MB-468, Breast Cancer, 10 µM one dose, 48 h, read-out: growth percentage
NCI-H322M = conditions: Homo sapiens, Non-Small Cell Lung Cancer, 10 µM one dose, 48 h, read-out: growth percentage
OVCAR-3 = conditions: Homo sapiens, OVCAR-3, Ovarian Cancer, 10 µM one dose, 48 h, read-out: growth percentage
OVCAR-4 = conditions: Homo sapiens, OVCAR-4, Ovarian Cancer, 10 µM one dose, 48 h, read-out: growth percentage
OVCAR-5 = conditions: Homo sapiens, OVCAR-5, Ovarian Cancer, 10 µM one dose, 48 h, read-out: growth percentage
SF-295 = conditions: Homo sapiens, SF-295, CNS Cancer, 10 µM one dose, 48 h, read-out: growth percentage
SK-MEL-2 = conditions: Homo sapiens, SK-MEL-2, Melanoma, 10 µM one dose, 48 h, read-out: growth percentage
SK-MEL-5 = conditions: Homo sapiens, SK-MEL-5, Melanoma, 10 µM one dose, 48 h, read-out: growth percentage
SW-620 = conditions: Homo sapiens, SW-620, Colon Cancer, 10 µM one dose, 48 h, read-out: growth percentage
T-47D = conditions: Homo sapiens, T47D, Breast Cancer, 10 µM one dose, 48 h, read-out: growth percentage
U251 = conditions: Homo sapiens, U-251, U251, CNS Cancer, 10 µM one dose, 48 h, read-out: growth percentage
UACC-257 = conditions: Homo sapiens, UACC-257, Melanoma, 10 µM one dose, 48 h, read-out: growth percentage
UACC-62 = conditions: Homo sapiens, UACC-62, Melanoma, 10 µM one dose, 48 h, read-out: growth percentage
UO-31 = conditions: Homo sapiens, UO-31, Renal Cancer, 10 µM one dose, 48 h, read-out: growth percentage

Structure (SMILES) | activity at 10 µM (A498) [%] | activity at 10 µM (BT-549) [%] | activity at 10 µM (EKVX) [%] | activity at 10 µM (HCC-2998) [%] | activity at 10 µM (HCT-15) [%] | activity at 10 µM (HOP-62) [%] | activity at 10 µM (HT29) [%] | activity at 10 µM (MALME-3M) [%] | activity at 10 µM (MDA-MB-468) [%] | activity at 10 µM (NCI-H322M) [%] | activity at 10 µM (OVCAR-3) [%] | activity at 10 µM (OVCAR-4) [%] | activity at 10 µM (OVCAR-5) [%] | activity at 10 µM (SF-295) [%] | activity at 10 µM (SK-MEL-2) [%] | activity at 10 µM (SK-MEL-5) [%] | activity at 10 µM (SW-620) [%] | activity at 10 µM (T-47D) [%] | activity at 10 µM (U251) [%] | activity at 10 µM (UACC-257) [%] | also measured
Cc1nn(-c2ccccc2)c2nc(C(F)(F)F)nc(Nc3ccc(NCc4c(-c5ccccc5)no[n+]4[O-])cc3)c12 [12a, 3-(((4-((3-methyl-1-phenyl-6-(trifluoromethyl)-1H-pyrazolo[3,4-d]pyrimidin-4-yl)amino)phenyl)amino)methyl)-4-phenyl-1,2,5-oxadiazole 2-oxide] | 94.4 | 103 | 73.2 | 85.6 | 42 | 93.1 | 61.5 | 91 | 75.8 | 77.6 | 105 | 70.8 | 93.7 | 76.6 | 106 | 70.3 | 86 | 80.5 | 69.9 | 103 | activity at 10 µM (UACC-62): 64.9%; activity at 10 µM (UO-31): 57.5%
[O-][n+]1onc(-c2ccccc2)c1CNc1ccc(Nc2nc(C(F)(F)F)nc3c2cnn3-c2ccc(Br)cc2)cc1 [12b, 3-(((4-((1-(4-bromophenyl)-6-(trifluoromethyl)-1H-pyrazolo[3,4-d]pyrimidin-4-yl)amino)phenyl)amino)methyl)-4-phenyl-1,2,5-oxadiazole 2-oxide] | 97.4 | 97.5 | 65.4 | 75.1 | 38.1 | 77.9 | 43.9 | 93.5 | 72 | 74.1 | 92 | 78.5 | 77.2 | 54.5 | 99.8 | 86 | 84.8 | 68.8 | 73.2 | 102 | activity at 10 µM (UACC-62): 64.9%; activity at 10 µM (UO-31): 43.4%
Cc1nn(-c2ccc(Br)cc2)c2nc(C(F)(F)F)nc(Nc3ccc(NCc4c(-c5ccccc5)no[n+]4[O-])cc3)c12 [12c, 3-(((4-((1-(4-bromophenyl)-3-methyl-6-(trifluoromethyl)-1H-pyrazolo[3,4-d]pyrimidin-4-yl)amino)phenyl)amino)methyl)-4-phenyl-1,2,5-oxadiazole 2-oxide] | 117 | 97.4 | 71.1 | 96.1 | 34.6 | 68.3 | 70.4 | 77.7 | 84.2 | 85.1 | 91.6 | 81.3 | 89.5 | 57.5 | 104 | 61.7 | 79.7 | 85.6 | 54.1 | 95.7 | activity at 10 µM (UACC-62): 62.5%; activity at 10 µM (UO-31): 50.3%
O=c1[nH]c(CCl)nc2c1cnn2-c1ccccc1 [13a] | 77.9 | 94.1 | 100 | 105 | 99.9 | 125 | 115 | -38.5 | 96.6 | 101 | 95.9 | 100 | 111 | 110 | 104 | 107 | 102 | 95.2 | 93.7 | 99 | activity at 10 µM (UACC-62): 96.2%; activity at 10 µM (UO-31): -20.9%
Cc1nn(-c2ccccc2)c2nc(CCl)[nH]c(=O)c12 [13b] | 4.55 | 100 | 99.2 | 108 | 90.6 | 98.3 | 106 | 2.09 | 26.6 | 103 | 97.4 | 90.9 | 110 | 109 | 97.9 | 110 | 85.1 | 66 | 93.9 | 98.8 | activity at 10 µM (UACC-62): 97.9%; activity at 10 µM (UO-31): -86.3%
Cc1nn(-c2ccc(Br)cc2)c2nc(CCl)[nH]c(=O)c12 [13c] | -88.8 | 101 | 99.5 | 105 | 103 | 98.5 | 104 | -9.8 | 94 | 104 | 97.4 | 116 | 116 | 100 | 103 | 103 | 110 | 91.5 | 99.7 | 102 | activity at 10 µM (UACC-62): 101%; activity at 10 µM (UO-31): -90.1%
O=c1[nH]c(CNc2ccc(NCc3c(-c4ccccc4)no[n+]3[O-])cc2)nc2c1cnn2-c1ccccc1 [14a, 3-(((4-(((4-oxo-1-phenyl-4,5-dihydro-1H-pyrazolo[3,4-d]pyrimidin-6-yl)methyl)amino)phenyl)amino)methyl)-4-phenyl-1,2,5-oxadiazole 2-oxide] | 86 | 62.1 | 51.3 | 84.4 | 71.2 | 105 | 92 | 63.6 | 33.2 | 80.2 | 73.5 | 94.5 | 64.3 | 71.8 | 77.8 | 85.3 | 92.8 | 42.5 | 76.1 | 39 | activity at 10 µM (UACC-62): 60.6%; activity at 10 µM (UO-31): 55.9%
Cc1nn(-c2ccccc2)c2nc(CNc3ccc(NCc4c(-c5ccccc5)no[n+]4[O-])cc3)[nH]c(=O)c12 [14b, 3-(((4-(((3-methyl-4-oxo-1-phenyl-4,5-dihydro-1H-pyrazolo[3,4-d]pyrimidin-6-yl)methyl)amino)phenyl)amino)methyl)-4-phenyl-1,2,5-oxadiazole 2-oxide] | 97.9 | 95.9 | 83 | 111 | 80.6 | 110 | 107 | 74.1 | 66.9 | 89 | 87.6 | 102 | 95.4 | 103 | 100 | 108 | 110 | 75.5 | 94.6 | 90.1 | activity at 10 µM (UACC-62): 98.5%; activity at 10 µM (UO-31): 72.4%

Reference: publication PMC8880564, “Design, Synthesis, and Biological Evaluation of a Novel VEGFR-2 Inhibitor Based on a 1,2,5-Oxadiazole-2-Oxide Scaffold with MAPK Signaling Pathway Inhibition” (Pharmaceuticals, 2022)
